From patent US11197857B2, “Combination therapy” (GlaxoSmithKline Intellectual Property Development Limited, priority 2016, dated 2021)

How the values were obtained:
Kidney cancer cell lines = experiment: 6-day growth-death assay (Cell Titer Glo); type: cell-based, human; conditions: 10 cell lines
[1] = tested on: ADMA, MMA, SDMA in Toledo cells; experiment: arginine methylation western analysis (time course and washout); type: cell-based, human; design: time to return of MMA to baseline after washout / time to return of ADMA to baseline after washout / time to return of SDMA to baseline after washout: dose or concentration left out as unconfirmed
From the text: (B) Representative western blots of arginine methylation marks. Regions quantified are denoted by black bars on the right of the gel.
(B) Representative western blots of arginine methylation marks. Regions quantified for (A) are denoted by black bars on the side of the gel.
As predicted, ADMA methylation decreased while MMA increased upon compound exposure (FIG. 12). […] Given the detection of numerous substrates with varying kinetics, and variability of ADMA levels among DMSO-treated samples, both the full lane and a prominent 45 kDa band were characterized to assess ADMA. Increases in MMA were apparent by 24 hours and near maximal by 48 hours while decreases in the 45 kDa ADMA band required 72-96 hours to achieve maximal effect. Increases in SDMA were apparent after 48 hours of compound exposure and continued to increase through 120 hours, consistent with the potential switch from conversion of MMA to ADMA by Type I PRMTs to SDMA by Type II PRMTs (FIG. 12).
Cells were then washed, cultured in Compound A-free media, samples were collected daily through 120 hours, and arginine methylation levels were examined by western analysis. […] SDMA appeared to continue to increase even after 6 hours of washout. This is consistent with the continued increase observed through 120 hours without any obvious plateau (FIG. 12) coupled with the durable increase in MMA that has not yet returned to baseline after washout. Durability of each modification generally reflected the kinetics of arginine methylation changes brought about by Compound A, with MMA being the most rapid.

[2] = tested on: Bladder cancer cell lines; experiment: 6-day growth-death assay (Cell Titer Glo); type: cell-based, human; conditions: 18 cell lines
COLO741 = experiment: 6-day growth-death assay (Cell Titer Glo); type: cell-based, human
From the text: (§1) Cell Titer Glo was used to measure growth inhibition as previously described.

A375 = experiment: 6-day growth-death assay (Cell Titer Glo); type: cell-based, human
From the text: as §1

IGR-1 = experiment: 6-day growth-death assay (Cell Titer Glo); type: cell-based, human
From the text: as §1

SK-MEL-5 = experiment: 6-day growth-death assay (Cell Titer Glo); type: cell-based, human
From the text: as §1

HT144 = experiment: 6-day growth-death assay (Cell Titer Glo); type: cell-based, human
From the text: as §1

SK-MEL-2 = experiment: 6-day growth-death assay (Cell Titer Glo); type: cell-based, human
From the text: as §1

MDA-MB-435S = experiment: 6-day growth-death assay (Cell Titer Glo); type: cell-based, human
From the text: as §1

[3] = tested on: Prostate cancer cell lines; experiment: 6-day growth-death assay (Cell Titer Glo); type: cell-based, human; conditions: 4 cell lines
NSCLC cell lines = experiment: 6-day growth-death assay (Cell Titer Glo); type: cell-based, human; conditions: 25 cell lines
rat 14-day MTD = conditions: […] mg/kg
[4] = tested on: panel of 4 ccRCC cell lines
PRMT5/MEP50 = PRMT5/MEP50 (Homo sapiens, UniProt O14744); experiment: PRMT family radioactive assay; type: biochemical; conditions: 60 minute SAM:Enzyme:Compound A preincubation
Lymphoma cell lines = experiment: 6-day growth-death assay (Cell Titer Glo); type: cell-based, human; conditions: 59 cell lines
[5] = tested on: 196 human cancer cell lines; experiment: 6-day growth-death assay (Cell Titer Glo); type: cell-based
[6] = tested on: non-TNBC breast cancer cell lines; experiment: cells; conditions: Homo sapiens, read-out: Median gIC50
Experimental: Cell lines representing triple negative breast cancer (TNBC) are shown in orange; other subtypes are in blue.
The growth of all cell lines was evaluated over time across a wide range of seeding densities to identify conditions that permitted proliferation throughout the entire 6-day assay. Cells were plated at the optimal seeding density and after overnight incubation, a 20-point 2-fold titration of compound was added and plates were incubated for 6 days. A replicate plate of cells was harvested at the time of compound addition to quantify the starting number of cells (T0). Values obtained after the 6 day treatment were expressed as a function of the T0 value and plotted against compound concentration. The T0 value was normalized to 100% and represents the number of cells at the time of compound addition. The data were fit with a 4 parameter equation to generate a concentration response curve and the growth IC50 (gIC50) was determined. The gIC50 is the midpoint of the ‘growth window’, the difference between the number of cells at the time of compound addition (To) and the number of cells after 6 days (DMSO control). The growth-death assay can be used to quantify the net population change, clearly defining cell death (cytotoxicity) as fewer cells compared to the number at the time of compound addition (To).

PRMT9 = PRMT9 (Homo sapiens, UniProt Q6P2P2); experiment: PRMT family radioactive assay; type: biochemical; conditions: 60 minute SAM:Enzyme:Compound A preincubation
AML cell lines = experiment: 6-day growth-death assay (Cell Titer Glo); type: cell-based, human
[7] = Homo sapiens, read-out: Median gIC50

PRMT5/MEP50, sequence (O14744 whole entry): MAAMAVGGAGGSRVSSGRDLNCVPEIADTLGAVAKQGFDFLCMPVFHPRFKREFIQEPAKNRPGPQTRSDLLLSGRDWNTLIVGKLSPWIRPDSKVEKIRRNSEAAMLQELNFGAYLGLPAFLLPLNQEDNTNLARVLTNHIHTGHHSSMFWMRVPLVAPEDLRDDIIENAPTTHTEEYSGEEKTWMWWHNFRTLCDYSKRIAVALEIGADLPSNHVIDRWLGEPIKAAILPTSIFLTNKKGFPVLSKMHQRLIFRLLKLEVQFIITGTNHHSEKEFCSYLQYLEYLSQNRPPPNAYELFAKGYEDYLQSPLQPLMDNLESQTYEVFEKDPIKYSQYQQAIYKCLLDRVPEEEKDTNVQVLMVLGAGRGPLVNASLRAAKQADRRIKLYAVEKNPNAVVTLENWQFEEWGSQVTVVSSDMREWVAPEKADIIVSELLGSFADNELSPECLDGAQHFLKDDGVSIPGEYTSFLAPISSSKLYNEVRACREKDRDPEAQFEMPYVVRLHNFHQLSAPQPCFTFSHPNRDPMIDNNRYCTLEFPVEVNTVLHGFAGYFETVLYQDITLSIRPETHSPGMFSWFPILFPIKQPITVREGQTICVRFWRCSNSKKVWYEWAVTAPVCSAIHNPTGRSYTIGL
PRMT5/MEP50, sequence (Q9BQA1 whole entry partner): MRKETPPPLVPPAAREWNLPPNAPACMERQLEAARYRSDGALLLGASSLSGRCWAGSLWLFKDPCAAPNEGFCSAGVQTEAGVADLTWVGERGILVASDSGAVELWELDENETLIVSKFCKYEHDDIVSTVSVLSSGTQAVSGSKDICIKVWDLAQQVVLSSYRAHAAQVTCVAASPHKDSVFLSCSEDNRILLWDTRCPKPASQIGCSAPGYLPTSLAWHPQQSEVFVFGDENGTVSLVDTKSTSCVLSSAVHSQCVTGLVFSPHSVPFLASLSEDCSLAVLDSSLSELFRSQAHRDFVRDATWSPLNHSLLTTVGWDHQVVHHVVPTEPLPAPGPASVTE
PRMT9, sequence (Q6P2P2 whole entry): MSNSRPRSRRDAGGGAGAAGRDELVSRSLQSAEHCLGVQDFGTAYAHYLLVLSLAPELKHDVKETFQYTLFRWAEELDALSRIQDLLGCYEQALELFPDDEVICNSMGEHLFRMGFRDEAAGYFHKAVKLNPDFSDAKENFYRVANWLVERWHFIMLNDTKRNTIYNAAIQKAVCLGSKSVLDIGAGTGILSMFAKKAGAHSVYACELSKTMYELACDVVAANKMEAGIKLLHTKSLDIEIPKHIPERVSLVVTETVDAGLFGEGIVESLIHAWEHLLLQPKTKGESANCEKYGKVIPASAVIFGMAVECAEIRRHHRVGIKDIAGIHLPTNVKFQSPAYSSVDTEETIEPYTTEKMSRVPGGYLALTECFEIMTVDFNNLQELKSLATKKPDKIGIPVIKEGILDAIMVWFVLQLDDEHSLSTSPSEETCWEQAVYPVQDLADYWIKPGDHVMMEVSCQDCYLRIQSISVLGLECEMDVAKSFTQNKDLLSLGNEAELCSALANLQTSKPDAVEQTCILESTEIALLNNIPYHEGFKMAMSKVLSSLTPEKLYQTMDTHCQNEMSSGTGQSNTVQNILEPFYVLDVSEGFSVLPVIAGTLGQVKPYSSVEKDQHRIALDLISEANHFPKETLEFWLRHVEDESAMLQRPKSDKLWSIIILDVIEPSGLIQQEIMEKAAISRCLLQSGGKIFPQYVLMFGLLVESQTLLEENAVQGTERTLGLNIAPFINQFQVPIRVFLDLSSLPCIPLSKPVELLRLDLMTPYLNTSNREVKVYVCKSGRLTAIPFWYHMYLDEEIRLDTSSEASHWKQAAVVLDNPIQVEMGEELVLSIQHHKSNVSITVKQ

With CCOCC1(COCC)CCC(c2n[nH]cc2CN(C)CCNC)CC1 [Compound A] the “% Cytotoxic (cell lines with negative Ymin-T0)” value (“% Cytotoxic” for short) (Kidney cancer cell lines) was 0%, the “% gIC100 < 2 μM (share of cell lines)” value (Kidney cancer cell lines) was 0% and the “Median gIC100” value (Kidney cancer cell lines) was 29.35 µM. The “time after which increases in SDMA were apparent” value ([1]; 0.4 μM) was 48 h, the “time by which increases in MMA were apparent” value ([1]; 0.4 μM) was ≤ 24 h and the “time by which increases in MMA were near maximal” value ([1]; 0.4 μM) was ≤ 48 h. For the same compound, the “time required for maximal decrease of 45 kDa ADMA band” value ([1]; 0.4 μM) was 72 to 96 h, the ADMA methylation change ([1]; 0.4 μM, up to 120 hours) was “decreased” and the MMA change ([1]; 0.4 μM, up to 120 hours) was “increased”. The SDMA level change ([1]; 0.4 μM, up to 120 hours) was “increase”, the “time to return of ADMA to baseline after washout” value ([1]; then washout) was ≤ 24 h and the “time to return of MMA to baseline after washout” value ([1]; then washout) was ≤ 24 h. For the same compound, the “time to return of SDMA to baseline after washout” value ([1]; then washout) was ≤ 96 h, the “% Cytotoxic” value [2] was 0% and the “% gIC100 < 2 μM (share of cell lines)” value [2] was 0%. For the same compound, the “Median gIC100” value [2] was 29.33 µM, the Ymin-T0 (COLO741) was 12.5 and the gIC100 (COLO741) was 28.55 ± 1.40 µM. The Ymin-T0 (A375; A375) was 91.9, the gIC100 (A375; A375) was 29.33 ± 0.00 µM and the IC50 (A375; Homo sapiens, A-375, read-out: gIC50) was 0.05 ± 0.03 µM. For the same compound, the Ymin-T0 (IGR-1) was 507.0, the gIC100 (IGR-1) was 29.33 ± 0.00 µM and the IC50 (SK-MEL-5; Homo sapiens, SK-MEL-5, read-out: gIC50) was 0.09 ± 0.03 µM. It also gave a Ymin-T0 (SK-MEL-5; SK-MEL-5) of 31.8, a gIC100 (SK-MEL-5; SK-MEL-5) of 27.09 ± 3.92 µM and a Ymin-T0 (HT144) of 124.9. It also gave a gIC100 (HT144) of 29.33 ± 0.00 µM, a Ymin-T0 (SK-MEL-2) of 35.9 and a gIC100 (SK-MEL-2) of 22.37 ± 12.11 µM. The Ymin-T0 (MDA-MB-435S) was 19.1, the gIC100 (MDA-MB-435S) was 29.33 ± 0.00 µM and the “% Cytotoxic” value [3] was 0%. For the same compound, the “% gIC100 < 2 μM (share of cell lines)” value [3] was 0%, the “Median gIC100” value [3] was 29.34 µM and the “% Cytotoxic” value (NSCLC cell lines) was 16%. The “% gIC100 < 2 μM (share of cell lines)” value (NSCLC cell lines) was 0%, the “Median gIC100” value (NSCLC cell lines) was 29.33 µM and the “Cave (total AUC or exposure) at MTD” value (rat 14-day MTD) was 2.1 µM. The “percent growth inhibition reached” value ([4]; all cell lines evaluated, within 6 days) was 100%, the “concentration at which caspase cleavage occurred” value ([4]; only at the highest concentration) was 30 µM and the inhibition of activity (PRMT5/MEP50) was “failed to inhibit”. The “% Cytotoxic” value (Lymphoma cell lines) was 54%, the “% gIC100 < 2 μM (share of cell lines)” value (Lymphoma cell lines) was 14% and the “Median gIC100” value (Lymphoma cell lines) was 21.62 µM. For the same compound, the IC50 [5, 7] was 2.12 µM, the “% Cytotoxic” value ([5]; Total, 196 cell lines) was 23% and the “% gIC100 < 2 μM (share of cell lines)” value ([5]; Total, 196 cell lines) was 4%. The “Median gIC100” value ([5]; Total, 196 cell lines) was 29.33 µM, the IC50 [6] was 6.8 µM and the inhibition of activity (PRMT9) was “failed to inhibit”. The “number of cell lines in which cytotoxicity was induced” value (AML cell lines; 10 AML cell lines) was 5, the “% Cytotoxic” value (AML cell lines; AML, 10 cell lines) was 50% and the “% gIC100 < 2 μM (share of cell lines)” value (AML cell lines; AML, 10 cell lines) was 0%. The “Median gIC100” value (AML cell lines; AML, 10 cell lines) was 16.72 µM and the IC50 (AML cell lines; [7]) was 0.54 µM.
